In patent US20110224197A1, “PYRIMIDINES AND PYRIDINES USEFUL AS INHIBITORS OF PROTEIN KINASES” (Vertex Pharmaceuticals Incorporated, priority 2008, published 2011):

How the values were obtained:
CRMP2 = CRMP2 Phosphorylation Assay; format: cell-based, rat; details: E16 hippocampal neurons treated for seven days
Protocol: GSK-3 phosphorylation regulates CRMP2 which is involved in the control of axon outgrowth and branching (Yoshimura et al., 2005 Cell, Kim et al. 2006 Neuron). Phosphorylation of CRMP2 by GSK-3 reduces CRMP2 binding to microtubules and thereby reduces axon elongation and branching. Conversely, inhibition of GSK-3, especially at levels that selectively affect TYR residue autophosphorylation, enhances these phenotypes. Compounds are tested in E16 rat hippocampal or cortical neurons to determine the ability to increase the level of axonal branching.
1 mg/ml stock of PDL is diluted into 100 μg/mL in DI water. The glass coverslips are coated for at least 1 hour at 37° C. prior to doing the dissection. PDL is aspirated and the plates are rinsed with PBS and air-dried in hood.
Cortical or hippocampal lobes are combined with 9 mL of Base media (Neurobasal+Pen/Strep) and put on ice. 1 mL of 10× trypsin solution is added and the Mixture is swirled gently. The tissue is then digested via incubation in a 37° C. waterbath for 20 minutes. After 20 minutes, 10 μL/mL DNase (100 μL DNase) is added and the mixture is incubated for another 5 minutes.
The cells are spun at 1000 rpm for 1 minute. The enzyme solution is then removed without removing any of the brain fragments sitting on the bottom. […] The cells are counted in a hemacytometer and seeded at 50,000 cells/well in a 12 well plate. […]

[1] = tested on: human umbilical vein endothelial cells (HUVEC); test: In vitro model of angiogenesis using HUVEC and skin fibroblasts; format: cell-based; details: HUVEC cultures
Source text: Compounds are screened for the ability to enhance angiogenesis in human umbilical vein endothelial cells (HUVEC). This method, adapted from Nakatsu et al., Microvas. Res. 2003, describes a protocol that recapitulates the major events essential for new vessel growth: budding, cell migration, cell proliferation, lumen formation, branching, and anastomosis.
HUVEC are used between P3 and P4. HUVEC are mixed with dextran coated cytodex 3 micro-carriers (Amersham Pharmacia) at a concentration of 400 HUVEC per bead in 1 ml of EGM-2 (2% FBS) medium (Clonetics). Beads with cells are then shaken gently every 20 minutes for 4 hours at 37° C. and 5% CO2. After incubating, beads with cells are transferred to a T-25 tissue culture flask and left for 12-16 hours in 5 ml of EGM-2 at 37° C. and 5% CO2.
The following day, beads with cells are washed three times with EGM-2 and re-suspended at a concentration of 200 cell-coated beads/ml in 2.5 mg/ml of fibrinogen (Sigma) with 0.15 U/ml of aprotinin (Sigma) at a pH of 7.4.
500 uL of fibrinogen/bead solution is then added to 0.625 U of thrombin (Sigma) in one well of a 24 well tissue culture plate. Fibrinogen/Bead solution is allowed to clot for 5 minutes at room temperature and then at 37° C. and 5% CO2 for 20 minutes. 1 mL of EGM-2 with 0.15 U/mL of aprotinin is then added to each well and equilibrated with the fibrin clot for 30 minutes at 37° C. and 5% CO2.
Next, media is removed from the well and replaced with 1 mL of fresh medium. […]
Angiogenesis is scored by quantification of images captured on an inverted microscope at 10× and 20× magnification for vessel length, number of vessels and branches per bead using NIH Image J software. […] YFP positive HUVEC are then cultured as described above and quantification of vessel formation is determined by calculating the area under the threshold fluorescence using NIH Image J software. In both cases, enhanced angiogenesis is determined by comparing compound treated cultures with a DMSO control culture at the same time point.

GSK-3α/β pTYR = test: pTYR biomarker analysis in brain, Post Stroke Model II; format: in vivo, rat; details: all doses, termination of study
Protocol: To track the activity of Compound I-37 in the CNS of rats subjected to MCAO, brains were removed and protein lysate was obtained (as described herein) from both vehicle treated and compound treated animals at the termination of the study. Lysates were analyzed by Western blot and probed for GSK-3α/β pTYR levels.
Protein lysate is obtained from the brains of all vehicle and compound-treated animals and is processed for biomarker analysis of GSK3α/β pTYR and β-catenin by Western blot assay to ensure compound activity on the target.

[2] = concentrations shown to induce β-catenin

## Cc1nc(-c2ccccc2Cl)nc(Nc2n[nH]c3ncc(F)cc23)c1C [Compound I-37, N-(2-(2-chlorophenyl)-5,6-dimethylpyrhnidin-4-yl)-5-fluoro-1H-pyrazolo[3,4-b]pyridin-3-amine]
CRMP2
  Inhibition of GSK-3 phosphorylation of substrate CRMP-2: correlated with inhibition of GSK-3 pTYR
[1]; 10 nM, 7 days
  vessel and network formation: increase vessel and network formation
[1]; [2]
  cell proliferation: increased cell proliferation was observed
  vessel formation: vessel formation was inhibited
GSK-3α/β pTYR
  pTYR signal compared to vehicle treated rats: significant reduction
